Experimental findings from publication doi:10.1101/2021.04.29.441652v1 (biorxiv, 2021) are described below.

In the test the target is human σ2 receptor (TMEM97) (Homo sapiens, UniProt Q5BJF2). The experiment in a line: biochemical. The format is Expi293 membranes. Particulars: read-out: % of control remaining.
human σ2 receptor (TMEM97), sequence (Q5BJF2 whole entry): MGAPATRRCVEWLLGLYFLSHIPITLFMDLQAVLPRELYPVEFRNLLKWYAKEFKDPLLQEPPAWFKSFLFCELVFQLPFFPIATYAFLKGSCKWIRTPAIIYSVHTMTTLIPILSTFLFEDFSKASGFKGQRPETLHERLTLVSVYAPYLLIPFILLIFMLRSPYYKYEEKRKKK
Turning to `COc1ccc(Br)cc1C/N=C1/NC[C@@H](C)N1` [ZINC000262658947], the remaining activity at 1 µM amounted to 45.4%.

On to `C[C@H](C(=O)NCc1ccc(F)cc1)N1C[C@H]2C[C@@H](O)CC[C@H]2C1` [ZINC000412048402], for which the remaining activity at 1 µM is 88.6%.

`Cc1ccccc1[C@@H]1CCN([C@H](C)C(=O)NCCc2ccccc2)C1` [ZINC000513818302]: the remaining activity at 1 µM was found to be 89.1%.

`O=C(Nc1ccc2c(=O)[nH]ccc2c1)C(=O)N1C[C@H](CO)[C@@H](O)C1` [ZINC001350153389]: the remaining activity at 1 µM was 93.3%.

As to `O=C1Nc2ccccc2C12CCC(NCC1(O)CCOCC1)CC2` (stereo not shown) [ZINC000178638284], the remaining activity at 1 µM is 111%.

As for `C[C@H](N[C@@H](C)CN1CCN(C)CC1)c1ccc(-c2ccccc2)o1` [ZINC000155112667], the remaining activity at 1 µM was 33.8%.

`Cc1c(CNC(=O)C(=O)N2CC[C@@H](C3CCN(C)CC3)C2)cnn1C` [ZINC000287105318]: the remaining activity at 1 µM was determined as 117%.

With `C[C@@H]1CCCC[C@H]1OCCNC(=O)NC[C@H]1CCCCN(C)C1` [ZINC000623468108], the remaining activity at 1 µM amounted to 84.9%.

Regarding `C[C@@H]1CN(C(=O)C2CN(C)CCN(C)C2)CC(C)(C)O1` [ZINC000906421824], the remaining activity at 1 µM was 127%.

For `C[C@@]1(C(=O)N[C@H]2CC23CCN(CC(=O)NC2CC2)CC3)CCNC1=O` [ZINC001016825715], the remaining activity at 1 µM was found to be 106%.

With `Cc1ccccc1-n1cc(CN2CCC[C@@H]([C@H]3CCCCO3)C2)nn1` [ZINC000668631550], the remaining activity at 1 µM was 58.4%.

For the compound `O=C1CN(CC(=O)N[C@H](CNc2cc(F)ncn2)C2CC2)CCN1` [ZINC001109958062], the remaining activity at 1 µM worked out at 90.2%.

With `Cc1ccc([C@H](NC[C@@]2(O)CCN(C)C2)c2ccccc2)cc1` [ZINC000358253868], the remaining activity at 1 µM was determined as 52.1%.

Take `CN1CC[C@]2(CCN(C(=O)C(=O)Nc3cccc4nonc34)C2)C1` [ZINC000847525041]: the remaining activity at 1 µM was determined as 59.3%.

On to `CCC1(C(=O)NCC[C@@H]2CCN(Cc3nccn3C)C2)CCCC1` [ZINC001377717241], for which the remaining activity at 1 µM came out at 102%.

Consider `COCC1(O)CCN(C[C@@H](O)Cn2cnc3cc(C)c(C)cc32)CC1` [ZINC000270395954], for which the remaining activity at 1 µM worked out at 121%.

For `O=C(N[C@H]1CCOC2(CCC2)C1)N1CCC(N2CC[C@@H](O)C2)CC1` [ZINC000664479370], the remaining activity at 1 µM is 103%.

For `Cc1cc(C(=O)N2CCCO[C@@H](CNCC(=O)NC3CC3)C2)n(C)n1` [ZINC001199969207], the remaining activity at 1 µM was 124%.

As to `COc1ccc([C@@H](C)N[C@H](CO)C2CCC2)cc1Br` [ZINC000658086473], the remaining activity at 1 µM turned out to be 42.3%.

As to `C[C@H]1[C@H](N(C)C)CCN1c1snc(Cl)c1C#N` [ZINC000820594289], the remaining activity at 1 µM was found to be 104%.

Regarding `Cc1cnc(CN[C@@H](CO)CCC(C)(C)C)n1C` [ZINC000341348768], the remaining activity at 1 µM worked out at 103%.

Consider `CN1CCC(C)(CNC(=O)Nc2ccc(Br)nc2)CC1` [ZINC000272631760], for which the remaining activity at 1 µM was 91.2%.

On to `C[C@H](C(=O)NCc1ccc(Cl)cc1)N1CC[C@@H](c2cccnc2)C1` [ZINC000571080072], for which the remaining activity at 1 µM was determined as 64%.

In the case of `CC[C@@H](C)NC(=O)[C@@H](C)N1CCC(c2c[nH]c3ccccc23)CC1` [ZINC000073649189], the remaining activity at 1 µM stood at 74.2%.

With `C[C@@H]1CCN2C(=O)N(CCCN3CCC[C@@H](C(N)=O)C3)C(=O)[C@H]2C1` [ZINC000349353698], the remaining activity at 1 µM is 142%.

Turning to `CN1CCN(C(=O)C(=O)N2CCCN(C3CCCC3)CC2)CC1=O` [ZINC000556797005], the remaining activity at 1 µM worked out at 79.9%.

With `C[C@H](C(=O)N[C@H]1C[C@H]2CC[C@@H]1N2CCOCC1CC1)c1cccs1` [ZINC001109713565], the remaining activity at 1 µM was 28.7%.

For `CC[C@@H](C(N)=O)N1CCC(NC(=O)[C@H]2Cc3ccc(Cl)cc32)CC1` [ZINC001004070100], the remaining activity at 1 µM was found to be 85.5%.
